This passage reports IC50 results from US9918990B2, “Substituted pyrrolo[2,3-c]pyridines and pyrazolo[3,4-c]pyridines as BET protein inhibitors” (Incyte Corporation, priority 2013, dated 2018).

One experiment concerns the target BRD4-BD1 (Homo sapiens (Human), UniProt O60885). Put plainly: BRD4 AlphaScreen assay, BRD4-BD1. It counts as binding. Particulars: H4Ac4 peptide, 75 min, room temperature, read-out: BRD4 BD-1 enzyme IC50. The protocol: (§1) BRD4-BD1 and BRD4-BD2 assays were conducted in white 384-well polystyrene plate in a final volume of 20 μL for BD1 and 40 μL for BD2. Inhibitors were first serially diluted in DMSO and added to the plate wells before the addition of other reaction components. […] After plate sealing, the plate was incubated in the dark at room temperature for 75 min. before reading on a PHERAstar FS plate reader (BMG Labtech). IC50 determination was performed by fitting the curve of percent control activity versus the log of the inhibitor concentration using the GraphPad Prism 5.0 software.
(In general: Bead proximity is the source of the signal in Alpha formats.)

A further experiment addresses BRD4-BD2 (Homo sapiens (Human), UniProt O60885). Nature of the experiment: BRD4 AlphaScreen assay, BRD4-BD2. The format is binding. The settings on record: H4Ac4 peptide, 75 min, room temperature, read-out: BRD4 BD-2 enzyme IC50. The protocol: as §1
The next experiment deals with C-myc. Nature of the experiment: KMS.12.BM C-myc ELISA assay. The format is cell-based. The settings on record: Homo sapiens; KMS.12.BM cells, 2 hours, concentration required for 50% C-myc inhibition. On the procedure:
KMS.12.BM cell line (human myeloma) was purchased from JCRB (Osaka, Japan) and maintained in RPMI with 10% FBS culture medium. To measure the C-myc inhibitory activity of the compounds, the KMS.12.BM cells are plated in the RPMI culture medium at 75000 cells/well/per 200 μL into a 96-well flat bottom polystyrene tissue culture plate (Corning through VWR, NJ), in the presence or absence of a concentration range of test compounds. After 2 hours, cell are pelleted and lysed with Cell Extraction Buffer (BioSource, Carlsbad, Calif.) in the presence of protease inhibitors (Life Technologies, Grand Island, N.Y. and Sigma, St Louis, Mo.). Clarified lyses are tested in a C-myc commercial ELISA (Life Technologies, Grand Island, N.Y.). Compound inhibition is determined relative to cells cultured with no drug and the IC50 is reported as the compound concentration required for 50% C-myc inhibition. IC50 data for the Examples is presented in Table 10 as determined by Assay C1.
For orientation: ELISA stands for enzyme-linked immunosorbent assay.

A further experiment relates to KMS.12.BM cells. Put plainly: KMS.12.BM cell viability assay (Cell Titer-GLO, ATP quantitation). It counts as cell-based. Particulars: Homo sapiens, 72 h, 3 days, concentration required for 50% cell death, read-out: KMS cellular IC50. On the procedure: KMS.12.BM cell line (human myeloma) was purchased from JCRB (Osaka, Japan) and maintained in RPMI with 10% FBS culture medium. To measure the cytotoxic activity of the compounds through ATP quantitation, the KMS.12.BM cells are plated in the RPMI culture medium at 5000 cells/well/per 100 μL into a 96-well polystyrene clear black tissue culture plate (Greiner-bio-one through VWR, NJ), in the presence or absence of a concentration range of test compounds. After 3 days, […] Cell Titer-GLO Luminescent (Promega, Madison, Wis.) cell culture agent is added to each well for 10 minutes at room temperature to stabilize the luminescent signal. This determines the number of viable cells in culture based on quantitation of the ATP present, which signals the presence of metabolically active cells. Luminescence is measured with the Top Count 384 (Packard Bioscience through Perkin Elmer, Boston, Mass.). Compound inhibition is determined relative to cells cultured with no drug and the IC50 is reported as the compound concentration required for 50% cell death. IC50 data for the Examples is presented in Table 9 as determined by Assay B1.
(In general: ATP-based viability assays read luminescence as a measure of living cells.)

Structures are written as SMILES. Counter-ions that a name gives are not always drawn.

Broadly, the IC50 is the concentration that gives 50% inhibition. Regarding `C[C@@H]1CN(CCn2c(=O)[nH]c3c(Oc4ccccc4)c(-c4cn(C)c(=O)c5[nH]ccc45)ccc32)C[C@H](C)O1` [Example 70, 1-{2-[(2R,6S)-2,6-Dimethylmorpholin-4-yl]ethyl}-5-(6-methyl-7-oxo-6,7-dihydro-1H-pyrrolo[2,3-c]pyridin-4-yl)-4-phenoxy-1,3-dihydro-2H-benzimidazol-2-one trifluoroacetate], the IC50 at BRD4-BD1 is below 0.1 µM; at BRD4-BD2, below 0.1 µM; with C-myc, at most 1 µM; in the experiment on KMS.12.BM cells, at most 1 µM.

Turning to `Cn1cc(-c2ccc3c(c2OCC2CCC2)n(CCCC#N)c(=O)n3C)c2cc[nH]c2c1=O` [Example 61, 4-[7-(Cyclobutylmethoxy)-3-methyl-6-(6-methyl-7-oxo-6,7-dihydro-1H-pyrrolo[2,3-c]pyridin-4-yl)-2-oxo-2,3-dihydro-1H-benzimidazol-1-yl]butanenitrile], the IC50 is below 0.1 µM on BRD4-BD1, below 0.1 µM at BRD4-BD2, at most 1 µM with C-myc and at most 1 µM in the experiment with KMS.12.BM cells.

With `Cn1cc(-c2ccc3c([nH]c(=O)n3C)c2OC2CCOCC2)c2cc[nH]c2c1=O` [Example 29, 1-Methyl-5-(6-methyl-7-oxo-6,7-dihydro-1H-pyrrolo[2,3-c]pyridin-4-yl)-4-(tetrahydro-2H-pyran-4-yloxy)-1,3-dihydro-2H-benzimidazol-2-one], the IC50 on BRD4-BD1 was below 0.1 µM; at BRD4-BD2, below 0.1 µM; with C-myc, at most 1 µM; in the experiment on KMS.12.BM cells, at most 1 µM.

Take `Cn1cc(-c2ccc3c([nH]c(=O)n3C)c2Oc2ccc(Cl)cc2)c2cc[nH]c2c1=O` [Example 86, 4-(4-Chlorophenoxy)-1-methyl-5-(6-methyl-7-oxo-6,7-dihydro-1H-pyrrolo[2,3-c]pyridin-4-yl)-1,3-dihydro-2H-benzimidazol-2-one]: the IC50 is below 0.1 µM at BRD4-BD1, below 0.1 µM on BRD4-BD2, at most 1 µM in the experiment with C-myc and at most 1 µM in the experiment with KMS.12.BM cells.

Regarding `Cn1cc(-c2ccc3c(ncn3CCC#N)c2Oc2ccccc2)c2cc[nH]c2c1=O` [Example 113, 3-[5-(6-Methyl-7-oxo-6,7-dihydro-1H-pyrrolo[2,3-c]pyridin-4-yl)-4-phenoxy-1H-benzimidazol-1-yl]propanenitrile], the IC50 is below 0.1 µM on BRD4-BD1, below 0.1 µM on BRD4-BD2, at most 1 µM in the experiment on C-myc and at most 1 µM in the experiment with KMS.12.BM cells.

Turning to `Cn1cc(-c2ccc3c([nH]c(=O)n3C)c2OCc2ccc(F)cc2F)c2cc[nH]c2c1=O` [Example 28, 4-[(2,4-Difluorobenzyl)oxy]-1-methyl-5-(6-methyl-7-oxo-6,7-dihydro-1H-pyrrolo[2,3-c]pyridin-4-yl)-1,3-dihydro-2H-benzimidazol-2-one], the IC50 on BRD4-BD1 is 0.1 to 1 µM; on BRD4-BD2, below 0.1 µM; in the experiment with C-myc it was 1 to 10 µM; in the experiment with KMS.12.BM cells, at most 1 µM.

Take `Cn1cc(-c2ccc3c(ncn3CCCC#N)c2Oc2ccccc2)c2cc[nH]c2c1=O` [Example 52, 4-[5-(6-Methyl-7-oxo-6,7-dihydro-1H-pyrrolo[2,3-c]pyridin-4-yl)-4-phenoxy-1H-benzimidazol-1-yl]butanenitrile]: the IC50 was below 0.1 µM at BRD4-BD1, below 0.1 µM on BRD4-BD2, at most 1 µM with C-myc and at most 1 µM in the experiment on KMS.12.BM cells.

Turning to `Cn1cc(-c2ccc3[nH]c(=O)[nH]c3c2Oc2ccc(F)cc2F)c2cn[nH]c2c1=O` [Example 16, 4-[4-(2,4-Difluorophenoxy)-2-oxo-2,3-dihydro-1H-benzimidazol-5-yl]-6-methyl-1,6-dihydro-7H-pyrazolo[3,4-c]pyridin-7-one], the IC50 on BRD4-BD1 is below 0.1 µM; at BRD4-BD2 it was below 0.1 µM; in the experiment on C-myc, at most 1 µM; in the experiment on KMS.12.BM cells, at most 1 µM.

With `Cn1cc(-c2ccc3c(c2Oc2ccccc2)NC(=O)CO3)c2cc[nH]c2c1=O` [Example 94, 6-(6-Methyl-7-oxo-6,7-dihydro-1H-pyrrolo[2,3-c]pyridin-4-yl)-5-phenoxy-2H-1,4-benzoxazin-3(4H)-one], the IC50 at BRD4-BD1 is below 0.1 µM; on BRD4-BD2, below 0.1 µM; with C-myc, at most 1 µM; in the experiment with KMS.12.BM cells it was at most 1 µM.

As for `Cn1cc(-c2ccc3c([nH]c(=O)n3C)c2OCC2CCCCC2)c2cc[nH]c2c1=O` [Example 88, 4-(Cyclohexylmethoxy)-1-methyl-5-(6-methyl-7-oxo-6,7-dihydro-1H-pyrrolo[2,3-c]pyridin-4-yl)-1,3-dihydro-2H-benzimidazol-2-one], the IC50 at BRD4-BD1 was below 0.1 µM; on BRD4-BD2 it was below 0.1 µM; in the experiment with C-myc it was at most 1 µM; with KMS.12.BM cells, at most 1 µM.

Turning to `COc1c(-c2cn(C)c(=O)c3[nH]ccc23)ccc2c1n(CCCC#N)c(=O)n2C` [Example 53, 4-[7-Methoxy-3-methyl-6-(6-methyl-7-oxo-6,7-dihydro-1H-pyrrolo[2,3-c]pyridin-4-yl)-2-oxo-2,3-dihydro-1H-benzimidazol-1-yl]butanenitrile], the IC50 was 0.1 to 1 µM at BRD4-BD1, below 0.1 µM at BRD4-BD2, at most 1 µM in the experiment with C-myc and at most 1 µM in the experiment with KMS.12.BM cells.

Regarding `Cn1cc(-c2ccc3[nH]c(=O)[nH]c3c2Oc2cccc(F)c2)c2cc[nH]c2c1=O` [Example 25, 4-(3-Fluorophenoxy)-5-(6-methyl-7-oxo-6,7-dihydro-1H-pyrrolo[2,3-c]pyridin-4-yl)-1,3-dihydro-2H-benzimidazol-2-one], the IC50 on BRD4-BD1 was below 0.1 µM; at BRD4-BD2, below 0.1 µM; in the experiment on C-myc it was at most 1 µM; in the experiment on KMS.12.BM cells, at most 1 µM.

In the case of `Cn1cc(-c2ccc3c([nH]c(=O)n3C)c2OC2CCCOC2)c2cc[nH]c2c1=O` (stereo not drawn) [Example 91, 1-Methyl-5-(6-methyl-7-oxo-6,7-dihydro-1H-pyrrolo[2,3-c]pyridin-4-yl)-4-(tetrahydro-2H-pyran-3-yloxy)-1,3-dihydro-2H-benzimidazol-2-one], the IC50 was below 0.1 µM on BRD4-BD1, below 0.1 µM on BRD4-BD2, at most 1 µM with C-myc and at most 1 µM in the experiment with KMS.12.BM cells.

`Cn1cc(-c2ccc3c(ncn3Cc3ccccc3)c2Oc2ccccc2)c2cc[nH]c2c1=O` [Example 46, 4-(1-Benzyl-4-phenoxy-1H-benzimidazol-5-yl)-6-methyl-1,6-dihydro-7H-pyrrolo[2,3-c]pyridin-7-one]: the IC50 at BRD4-BD1 was below 0.1 µM; on BRD4-BD2, below 0.1 µM; in the experiment on C-myc, at most 1 µM; in the experiment on KMS.12.BM cells, at most 1 µM.

With `COc1c(-c2cn(C)c(=O)c3[nH]ccc23)ccc2c1[nH]c(=O)n2C` [Example 32, 4-Methoxy-1-methyl-5-(6-methyl-7-oxo-6,7-dihydro-1H-pyrrolo[2,3-c]pyridin-4-yl)-1,3-dihydro-2H-benzimidazol-2-one], the IC50 was 0.1 to 1 µM at BRD4-BD1, below 0.1 µM on BRD4-BD2, at most 1 µM with C-myc and at most 1 µM in the experiment with KMS.12.BM cells.

For `Cn1cc(-c2ccc3c([nH]c(=O)n3C)c2OC2CCC2)c2cc[nH]c2c1=O` [Example 89, 4-(Cyclobutyloxy)-1-methyl-5-(6-methyl-7-oxo-6,7-dihydro-1H-pyrrolo[2,3-c]pyridin-4-yl)-1,3-dihydro-2H-benzimidazol-2-one], the IC50 was below 0.1 µM on BRD4-BD1, below 0.1 µM at BRD4-BD2, at most 1 µM with C-myc and at most 1 µM in the experiment on KMS.12.BM cells.

Take `CC(O)c1cc(-c2cn(C)c(=O)c3[nH]ncc23)c(Oc2ccc(F)cc2F)c2ncn(C)c12` (stereo not drawn) [Example 78, 4-[4-(2,4-Difluorophenoxy)-7-(1-hydroxyethyl)-1-methyl-1H-benzimidazol-5-yl]-6-methyl-1,6-dihydro-7H-pyrazolo[3,4-c]pyridin-7-one]: the IC50 is below 0.1 µM at BRD4-BD1, below 0.1 µM on BRD4-BD2, at most 1 µM in the experiment on C-myc and at most 1 µM in the experiment with KMS.12.BM cells.

Turning to `Cn1cc(-c2ccc3c(ncn3CCN3CCOCC3)c2Oc2ccc(F)cc2F)c2cn[nH]c2c1=O` [Example 17, 4-[4-(2,4-Difluorophenoxy)-1-(2-morpholin-4-ylethyl)-1H-benzimidazol-5-yl]-6-methyl-1,6-dihydro-7H-pyrazolo[3,4-c]pyridin-7-one], the IC50 on BRD4-BD1 is below 0.1 µM; at BRD4-BD2, below 0.1 µM; in the experiment on C-myc, at most 1 µM; in the experiment with KMS.12.BM cells, at most 1 µM.
